What was measured:
Assay type in all cases: cell-based
[1] = system: MAPK signaling (pErk1/2); experiment: Western blot of pErk1/2 (MAPK signaling) in A549 cells treated with Methotrexate, with or without EGF; settings: as little as 1.0 μM for 24 hours, then serum starvation 48 hours, with or without 10 ng/ml EGF for final 10 minutes (FIG. 3)
Method: Additionally, in vitro cell signaling studies were conduced to examine MAPK signaling in RAS mutant cells treated with Methotrexate. For Methotrexate treatments, A549 lung tumor cells were treated with 1.0 or 10.0 μM Methotrexate in full serum media for 24 hours followed by withdrawal of Methotrexate and serum starvation (1.0% FBS) for 48 hours in the absence or presence of 10 ng/ml EGF added for the final 10 minutes before harvest of the cells. Next, whole cell extracts were isolated for Western blot analysis of pErk1/2 and pAkt. The presence of β-actin served as an internal control for loading differences between lanes.

[2] = system: mutant Ras; experiment: Immunocytochemistry staining for RAS in A549 lung tumor cells; settings: A549 lung tumor cell line, 1.0 micromolar, 48 hours
Method: In an exemplary method, the A549 lung tumor cell line was treated for 48 hours with 1.0 micromolar Methotrexate followed by immunocytochemistry staining for RAS on slides.

[3] = system: MAPK signaling (pAKT, pErk1/2); experiment: Western blot of pAKT and pErk1/2 in KRAS mutant A549 cells treated with EGF, Methotrexate, C225 or combination
Method: For Methotrexate treatments, A549 lung tumor cells were treated with 1.0 μM Methotrexate in full serum media for 24 hours followed by withdrawal of Methotrexate and serum starvation (1.0% FBS) for 48 hours in the absence or presence of 5 ng/ml EGF added for the final 10 minutes before harvest of the cells.

Compound | basal and EGF-induced pErk1/2 levels [1] | overall abundance of mutant Ras ([2]; vs untreated cells (FIGS. 1 and 2)) | localization of mutant Ras ([2]; vs untreated cells (diffuse and at the membrane)) | inhibition of pErk1/2 ([3]; EGF stimulation (5 ng/ml), agent alone: 1.0 μM Methotrexate or C225 up to 25 μg/ml) | amount of detectable pAKT and pErk1/2 ([3]; agent by itself (FIG. 4)) | activation of the MAPK pathway (pErk1/2 induction) ([3]; EGF stimulation 5 ng/ml for final 10 minutes)
CN(Cc1cnc2nc(N)nc(N)c2n1)c1ccc(C(=O)N[C@@H](CCC(=O)O)C(=O)O)cc1 [Methotrexate] | reduced both basal and EGF-induce pErk1/2 levels | diminished | mislocalization from the plasma membrane resulting in highly cytoplasmic staining of mutant Ras | only slightly inhibited | slight reduction | 
EGF: epidermal growth factor used to stimulate A549 cells (NSDSECPLSHDGYCLHDGVCMYIEALDKYACNCVVGYIGERCQYRDLKWWELR; Epidermal growth factor; UniProt P01133 971-1023, looked up) |  |  |  |  |  | potently activated

Reference: patent US20110059081A1, “METHODS AND COMPOSITIONS FOR THE TREATMENT OF RECEPTOR TYROSINE KINASE MEDIATED DISEASES OR DISORDERS” (QUINTILES TRANSNATIONAL CORP., priority 2009, published 2011)
